Measured values as given in patent US20070265306A1, “4-[(3-fluorophenoxy)phenylmethyl]piperidine methanesulfonate: uses, process of synthesis and pharmaceutical compositions” (priority 2006, published 2007).
Where a name gives a salt, the structure may show the parent alone. Read-outs that look alike come from different tables or passages of the source.

Legend:
[1] = as mentioned in U.S. Pat. No. 6,518,284 B2 and EP1002794; cited from earlier work
[2] = hygroscopicity; format: physicochemical
[3] = test system: dorsal raphe serotonergic neurones; conditions: in vivo; cited from earlier work
[4] = test system: 5-HTP-induced syndrome; conditions: mice, orally administered, acute; cited from earlier work
[5] = test system: apomorphine-induced hypothermia; conditions: mice, orally administered, acute; cited from earlier work
[6] = test system: immobility in the tail suspension test; conditions: mice, orally administered, acute; cited from earlier work
[7] = test system: immobility in the forced swimming test; conditions: mice, 30 mg/kg, p.o.; cited from earlier work
[8] = test system: immobility in the forced swimming test; conditions: rats, 30 mg/kg, p.o.; cited from earlier work
[9] = test system: hyperactivity induced by olfactory bulbectomy; conditions: rats, chronic administration 14 days, 30 mg kg(−1) day(−1), p. o.; cited from earlier work
[10] = test system: social interaction time; conditions: rats, 14 days, 30 mg kg(−1) day(−1), p. o.; cited from earlier work
[11] = studies of stability under forced conditions; format: physicochemical
Procedure: Additionally, the compound of formula I has shown excellent stability properties. The compound of formula I has remained stable for at least 6 months in studies of stability under forced conditions at 50 and 60° C., as well as at 40° C. and 75% humidity. This represents more than 2 years of stability under normal conditions.

SMILES: Fc1cccc(O[C@H](c2ccccc2)C2CCNCC2)c1 (as salt: fumaric acid salt) [(S)-4-[(3-fluorophenoxy)phenylmethyl]piperidine]
- melting point: 105 to 108 °C

SMILES: Fc1cccc(OC(c2ccccc2)C2CCNCC2)c1 (racemic) [4-[(3-fluorophenoxy)phenylmethyl]piperidine]
- solubility in water [1]: insoluble in water

SMILES: Cl.Fc1cccc(O[C@H](c2ccccc2)C2CCNCC2)c1 [(S)-4-[(3-fluorophenoxy)phenylmethyl]piperidine hydrochloric acid salt]
- hygroscopicity [2]: hygroscopic
- melting point: 55 to 60 °C

SMILES: Fc1cccc(O[C@H](c2ccccc2)C2CCNCC2)c1.O=S(=O)(O)O [(S)-4-[(3-fluorophenoxy)phenylmethyl]piperidine sulphuric acid salt]
- hygroscopicity [2]: hygroscopic

SMILES: Fc1cccc(O[C@H](c2ccccc2)C2CCNCC2)c1 [(S)-4-[(3-fluorophenoxy)phenylmethyl]piperidine]
- ED50, decrease of electrical activity of dorsal raphe serotonergic neurones [3]: 0.5303 mg/kg
- minimal effective dose (MED), potentiation of 5-HTP-induced syndrome [4]: 10 mg/kg
- ED50, antagonism of hypothermia induced by a high dose of apomorphine [5]: 2 mg/kg
- MED, reduction of immobility in the tail suspension test [6]: 10 mg/kg
- immobility in the forced swimming test [7]: decreases the immobility
- immobility in the forced swimming test [8]: decreases the immobility
- hyperactivity induced by olfactory bulbectomy [9]: attenuates the hyperactivity
- social interaction time [10]: significantly increases

SMILES: CS(=O)(=O)O.Fc1cccc(OC(c2ccccc2)C2CCNCC2)c1 (stereo not drawn) [compound of formula I, 4-[(3-fluorophenoxy)phenylmethyl]piperidine methanesulfonic acid salt]
- time remained stable under forced conditions ([11]; 40° C. and 75% humidity): at least 6 months
- time remained stable under forced conditions ([11]; 50° C.): at least 6 months
- time remained stable under forced conditions ([11]; 60° C.): at least 6 months
- stability under normal conditions ([11]; normal conditions, extrapolated from forced conditions): more than 2 years
- hygroscopicity [2]: not hygroscopic
